From patent publication US20110269759A1, “PYRIMIDINE COMPOUNDS AS DELTA OPIOID RECEPTOR MODULATORS” (priority 2009, published 2011)
Like-named read-outs stand apart in the source and are kept apart here.

Experiments:
δ-opioid receptor = δ-opioid receptor (Mus musculus, UniProt P32300); test: [35S]GTPγS δ-opioid receptor functional assay (EC50, relative efficacy, % inhibition); assay type: biochemical; parameters: NG108-15 cell membranes were purchased from Applied Cell Sciences (Rockville, Md.); conditions: for inhibition at 10 µM: read-out: GTPγS δ-opioid receptor % Inh @10 μM
Delta Opioid Receptor [1] = target: T1, Delta Opioid Receptor (Rattus norvegicus, UniProt P33533); test: Rat brain delta opioid receptor binding assay ([3H]DPDPE or [3H]naltrindole)
T1 construct: the forebrains were homogenized in Tris buffer in a Teflon®-glass homogenizer; from tissue; host or cells: forebrain of male Wistar rats, particulate membrane preparation

Mu Opioid Receptor = target: T2, Mu Opioid Receptor (Rattus norvegicus, UniProt P33535); test: Rat brain mu opioid receptor binding assay ([3H]DAMGO)
T2 construct: the forebrains were homogenized in Tris buffer in a Teflon®-glass homogenizer; from tissue; host or cells: forebrain of male Wistar rats, particulate membrane preparation

Delta Opioid Receptor [2] = target: T3, Delta Opioid Receptor (Mus musculus, UniProt P32300); test: NG108-15, 24-well delta opioid receptor binding assay ([3H]naltrindole)
T3 construct: NG108-15 cell membranes were purchased from Applied Cell Sciences (Rockville, Md.); host or cells: NG108-15 cell membranes (purchased)

[3] = rat forebrain membranes, 0.25 nM [3H]naltrindole, read-out: δ-binding (Naltrindole ligand) Ki
[4] = rat forebrain membranes, ~0.8 nM [3H]DAMGO, read-out: μ-binding Ki
[5] = rat forebrain membranes, ~4 nM [3H]DPDPE, read-out: δ-binding (DPDPE ligand) Ki

T2 sequence (P33535 whole entry): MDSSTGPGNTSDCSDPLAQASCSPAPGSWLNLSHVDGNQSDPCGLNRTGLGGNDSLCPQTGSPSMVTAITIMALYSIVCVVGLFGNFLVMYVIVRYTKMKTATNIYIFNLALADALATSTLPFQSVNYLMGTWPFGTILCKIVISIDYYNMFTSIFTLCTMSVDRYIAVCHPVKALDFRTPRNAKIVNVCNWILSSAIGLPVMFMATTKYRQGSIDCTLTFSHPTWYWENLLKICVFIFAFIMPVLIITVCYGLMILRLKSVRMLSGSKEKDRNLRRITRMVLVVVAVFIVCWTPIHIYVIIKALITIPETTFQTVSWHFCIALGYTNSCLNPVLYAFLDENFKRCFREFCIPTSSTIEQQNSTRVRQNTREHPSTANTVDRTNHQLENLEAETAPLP
T1 sequence (P33533 whole entry): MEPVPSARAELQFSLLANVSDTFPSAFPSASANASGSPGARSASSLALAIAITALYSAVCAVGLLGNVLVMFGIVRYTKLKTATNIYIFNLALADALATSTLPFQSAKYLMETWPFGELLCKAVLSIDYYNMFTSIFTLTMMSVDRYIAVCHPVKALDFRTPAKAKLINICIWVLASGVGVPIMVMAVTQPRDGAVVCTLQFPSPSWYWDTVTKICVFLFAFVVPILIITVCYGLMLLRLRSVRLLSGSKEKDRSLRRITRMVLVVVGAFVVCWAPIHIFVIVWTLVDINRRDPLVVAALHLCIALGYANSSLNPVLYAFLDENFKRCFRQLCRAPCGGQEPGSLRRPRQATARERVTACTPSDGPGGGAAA
δ-opioid receptor, sequence (P32300 whole entry): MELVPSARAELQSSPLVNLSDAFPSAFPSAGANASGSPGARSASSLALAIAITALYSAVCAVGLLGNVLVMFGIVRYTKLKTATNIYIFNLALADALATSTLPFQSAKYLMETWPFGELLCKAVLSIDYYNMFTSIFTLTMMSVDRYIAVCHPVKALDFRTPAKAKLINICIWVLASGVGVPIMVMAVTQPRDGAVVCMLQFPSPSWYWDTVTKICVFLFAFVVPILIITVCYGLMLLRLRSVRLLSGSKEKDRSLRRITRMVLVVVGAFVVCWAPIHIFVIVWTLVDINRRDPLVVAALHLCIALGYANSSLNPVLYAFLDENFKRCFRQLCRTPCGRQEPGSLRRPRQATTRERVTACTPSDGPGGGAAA
T3 sequence (P32300 whole entry): as above

| SMILES | Ki (Delta Opioid Receptor [1]; [3]) [nM] | Ki (Mu Opioid Receptor; [4]) [nM] | Ki (Delta Opioid Receptor [1]; [5]) [nM] | also measured |
| --- | --- | --- | --- | --- |
| NC(=O)c1cccc(Oc2cc(-c3ccccc3)ccc2NC[C@@H]2CCCN2)c1 [Cpd 30] | 126 |  |  | EC50 (δ-opioid receptor): 1020 nM; GTPγS δ-opioid receptor Rel Efficacy (δ-opioid receptor): 0.2668; inhibition at 10 µM (δ-opioid receptor): 36.5%; Ki (Mu Opioid Receptor): 5800 nM |
| O=C(O)c1ccc(Oc2cc(-c3ccccc3)ccc2NC[C@@H]2CCCN2)cc1 [Cpd 31, (S)-4-{4-[(Pyrrolidin-2-ylmethyl)-amino]-biphenyl-3-yloxy}-benzoic acid] | 7690 | > 10000 |  |  |
| O=C(O)c1cccc(Oc2cc(-c3ccccc3)ccc2NC[C@@H]2CCCN2)c1 [Cpd 32] | 2670 |  |  |  |
| CCN(CC)C(=O)c1ccc(Oc2cc(-c3ccccc3)ccc2NC[C@@H]2CCCN2)cc1 [Cpd 33, (S)-N,N-Diethyl-4-{4-[(pyrrolidin-2-ylmethyl)-amino]-biphenyl-3-yloxy}-benzamide] | 284 |  |  | Ki (Mu Opioid Receptor): 9300 nM |
| CCN(CC)C(=O)c1cccc(Oc2cc(-c3ccccc3)ccc2NC[C@@H]2CCCN2)c1 [Cpd 34] | 310 |  |  |  |
| COc1ccc(Oc2cc(-c3ccccc3)ccc2NC[C@@H]2CCCN2)cc1 [Cpd 35, (S)-[3-(4-Methoxy-phenoxy)-biphenyl-4-yl]-pyrrolidin-2-ylmethyl-amine] |  |  |  | inhibition at 10 µM (δ-opioid receptor): 1%; Ki (Delta Opioid Receptor [1]): 28.9 nM; Ki (Mu Opioid Receptor; read-out: μ-binding Ki): > 10000 nM |
| COc1ccc(Oc2cc(-c3ccc4ccccc4c3)ccc2NC[C@@H]2CCCN2)cc1 [Cpd 36, (S)-[2-(4-Methoxy-phenoxy)-4-naphthalen-2-yl-phenyl]-pyrrolidin-2-ylmethyl-amine] | 290 | > 10000 |  |  |
| COc1ccc(Oc2cc(-c3cccc4ccccc34)ccc2NC[C@@H]2CCCN2)cc1 [Cpd 37] | 301 |  |  |  |
| COc1ccc(Oc2cc(-c3ccoc3)ccc2NC[C@@H]2CCCN2)cc1 [Cpd 40] | 205 |  |  |  |
| COc1ccc(Oc2cc(-c3ccsc3)ccc2NC[C@@H]2CCCN2)cc1 [Cpd 41] | 290 |  |  |  |
| Oc1ccc(Oc2cc(-c3cccnc3)ccc2NC[C@@H]2CCCN2)cc1 [Cpd 45, (S)-4-{5-Pyridin-3-yl-2-[(pyrrolidin-2-ylmethyl)-amino]-phenoxy}-phenol] |  |  |  | EC50 (δ-opioid receptor): 40.8 nM; GTPγS δ-opioid receptor Rel Efficacy (δ-opioid receptor): 0.627; inhibition at 10 µM (δ-opioid receptor): 35.6%; Ki (Delta Opioid Receptor [1]): 5.42 nM; Ki (Mu Opioid Receptor): 4460 nM |
| COc1ccc(Oc2cc(-c3ccccc3)ccc2N2CCNCC2)cc1 [Cpd 46, 1-[3-(4-Methoxy-phenoxy)biphenyl-4-yl]piperazine] |  |  |  | Ki (Delta Opioid Receptor [1]): 79.7 nM; Ki (Mu Opioid Receptor; read-out: μ-binding Ki): > 10000 nM |
| COc1ccc(Oc2cc(-c3ccccc3)ccc2N2CCN(C)CC2)cc1 [Cpd 47, 1-[3-(4-Methoxy-phenoxy)biphenyl-4-yl]-4-methyl-piperazine] | 2220 | > 10000 |  |  |
| COc1ccc(Oc2cc(-c3noc(=O)[nH]3)ccc2NC[C@@H]2CCCN2)cc1 [Cpd 48, (S)-3-{3-(4-Methoxy-phenoxy)-4-[(pyrrolidin-2-ylmethyl)-amino]-phenyl}-4H-[1,2,4]oxadiazol-5-one] |  | 9700 | 492 |  |
| CCN(C[C@@H]1CCCN1)c1ccc(-c2cccnc2)cc1Oc1ccc(OC)cc1 [Cpd 49, (S)-Ethyl-[2-(4-methoxy-phenoxy)-4-pyridin-3-yl-phenyl]-pyrrolidin-2-ylmethyl-amine] |  |  |  | Ki (Delta Opioid Receptor [2]; NG108-15 cell membranes, ~0.2 nM [3H]naltrindole, read-out: δ-binding NG108 cell membrane Ki): 29 nM |
| CCN(C[C@@H]1CCCN1)c1ccc(-c2cncc(F)c2)cc1Oc1ccc(OC)cc1 [Cpd 50] |  |  |  | Ki (Delta Opioid Receptor [2]): 23 nM |
| COc1ccc(Oc2ccc(NC[C@@H]3CCCN3)c(Oc3ccc(OC)cc3)c2)cc1 [Cpd 53, (S)-[2,4-Bis-(4-methoxy-phenoxy)-phenyl]-pyrrolidin-2-ylmethyl-amine] |  | > 10000 | 105 | EC50 (δ-opioid receptor): 319 nM; inhibition at 10 µM (δ-opioid receptor): 28.2% |
| COc1ccc(Oc2ccc(NC[C@@H](N)CO)c(Oc3ccc(OC)cc3)c2)cc1 [Cpd 55] |  |  | 1370 |  |
| COc1ccc(Oc2ccc(NC3CCNCC3)c(Oc3ccc(OC)cc3)c2)cc1 [Cpd 56] |  | > 10000 | 1730 |  |
| COc1ccc(Oc2ccc(NC3CC4CCC(C3)N4)c(Oc3ccc(OC)cc3)c2)cc1 (centres unmarked) [Cpd 57] |  | > 10000 | 1430 |  |
| COc1ccc(Oc2ccc(NCC3CNC3)c(Oc3ccc(OC)cc3)c2)cc1 [Cpd 58] |  | > 10000 | 703 |  |
| COc1ccc(Oc2ccc(N(CC3CNC3)CC3CNC3)c(Oc3ccc(OC)cc3)c2)cc1 [Cpd 59] |  | > 10000 | 2280 |  |
| COc1ccc(Oc2ccc(NC3CN4CCC3CC4)c(Oc3ccc(OC)cc3)c2)cc1 (centres unmarked) [Cpd 60] |  | > 10000 | 158 |  |
| COc1ccc(Oc2ccc(NC3CCCC(N)C3)c(Oc3ccc(OC)cc3)c2)cc1 (centres unmarked) [Cpd 62] |  |  |  | EC50 (δ-opioid receptor): 381 nM; inhibition at 10 µM (δ-opioid receptor): 1.73%; Ki (Delta Opioid Receptor [1]): 40.9 nM; Ki (Mu Opioid Receptor): 1640 nM |
| CNCCNc1ccc(Oc2ccc(OC)cc2)cc1Oc1ccc(OC)cc1 [Cpd 63, N-[2,4-Bis-(4-methoxy-phenoxy)-phenyl]-N′-methyl-ethane-1,2-diamine] |  |  |  | inhibition at 10 µM (δ-opioid receptor): 26%; Ki (Delta Opioid Receptor [1]): 23.7 nM; Ki (Mu Opioid Receptor; read-out: μ-binding Ki): > 10000 nM |
| CNCCN(CCNC)c1ccc(Oc2ccc(OC)cc2)cc1Oc1ccc(OC)cc1 [Cpd 64, N-[2,4-Bis-(4-methoxy-phenoxy)-phenyl]-N′-methyl-N-(2-methylamino-ethyl)-ethane-1,2-diamine] |  | > 10000 | 1540 |  |
